Experimental data published in patent US12522583B2, “Benzimidazole derivatives and aza-benzimidazole derivatives as Janus kinase 2 inhibitors and uses thereof” (Dana-Farber Cancer Institute, Inc., priority 2018, dated 2026).

How the values were obtained:
Assay in all cases: KINOMEscan
Type in all cases: binding
[1] = target: ABL1(F317L)-phosphorylated (Homo sapiens (Human), UniProt P00519, F317L); conditions: read-out: percent control
From the text: (§1) Example 2. In Vitro Kinase Selectivity Profiling of the Compounds of the Present Disclosure

AXL = AXL (Homo sapiens (Human), UniProt P30530); conditions: read-out: percent control
Sequence of AXL (P30530 26-894): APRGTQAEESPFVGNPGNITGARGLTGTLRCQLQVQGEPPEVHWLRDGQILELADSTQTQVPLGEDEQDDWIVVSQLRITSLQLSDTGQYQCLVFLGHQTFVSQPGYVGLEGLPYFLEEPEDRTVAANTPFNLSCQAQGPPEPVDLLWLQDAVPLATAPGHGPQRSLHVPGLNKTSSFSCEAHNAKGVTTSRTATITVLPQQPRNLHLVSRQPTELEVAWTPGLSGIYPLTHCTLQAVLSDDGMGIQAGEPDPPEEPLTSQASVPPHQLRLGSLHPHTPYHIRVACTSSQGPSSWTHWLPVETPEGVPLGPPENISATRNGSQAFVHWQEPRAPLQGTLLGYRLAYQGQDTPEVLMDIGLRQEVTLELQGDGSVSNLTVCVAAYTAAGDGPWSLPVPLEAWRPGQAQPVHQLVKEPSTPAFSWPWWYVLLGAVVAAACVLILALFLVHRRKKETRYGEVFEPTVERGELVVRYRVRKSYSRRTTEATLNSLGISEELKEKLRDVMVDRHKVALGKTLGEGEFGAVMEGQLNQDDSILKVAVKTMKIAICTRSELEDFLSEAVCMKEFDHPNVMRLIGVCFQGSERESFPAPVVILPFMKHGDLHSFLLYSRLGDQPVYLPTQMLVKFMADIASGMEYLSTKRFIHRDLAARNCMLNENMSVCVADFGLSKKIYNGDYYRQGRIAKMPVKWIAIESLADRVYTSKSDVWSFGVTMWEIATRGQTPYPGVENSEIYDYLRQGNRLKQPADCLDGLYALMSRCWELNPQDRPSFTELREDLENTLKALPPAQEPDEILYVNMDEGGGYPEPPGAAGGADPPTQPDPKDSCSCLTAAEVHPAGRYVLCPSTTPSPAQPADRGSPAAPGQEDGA
From the text: as §1

BMX = BMX (Homo sapiens (Human), UniProt P51813); conditions: read-out: percent control
Sequence of BMX (P51813 whole entry): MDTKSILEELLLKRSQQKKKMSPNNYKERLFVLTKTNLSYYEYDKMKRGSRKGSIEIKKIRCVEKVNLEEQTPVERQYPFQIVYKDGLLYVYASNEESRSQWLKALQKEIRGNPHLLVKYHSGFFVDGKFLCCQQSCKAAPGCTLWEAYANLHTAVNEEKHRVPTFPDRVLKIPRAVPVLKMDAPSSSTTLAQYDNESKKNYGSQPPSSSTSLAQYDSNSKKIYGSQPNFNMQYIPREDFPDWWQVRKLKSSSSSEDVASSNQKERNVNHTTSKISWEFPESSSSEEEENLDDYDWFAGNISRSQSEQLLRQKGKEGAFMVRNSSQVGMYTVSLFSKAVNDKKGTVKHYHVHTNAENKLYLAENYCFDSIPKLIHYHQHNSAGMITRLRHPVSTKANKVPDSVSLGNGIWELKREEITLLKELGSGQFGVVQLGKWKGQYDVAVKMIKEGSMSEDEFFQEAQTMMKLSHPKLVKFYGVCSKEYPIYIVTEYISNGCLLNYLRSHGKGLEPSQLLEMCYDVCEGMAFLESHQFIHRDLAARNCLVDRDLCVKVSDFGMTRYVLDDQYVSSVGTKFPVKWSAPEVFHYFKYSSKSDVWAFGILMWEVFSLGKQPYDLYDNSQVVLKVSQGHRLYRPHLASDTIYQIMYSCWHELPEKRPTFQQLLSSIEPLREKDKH
From the text: as §1

CAMK2A = CAMK2A (Homo sapiens (Human), UniProt Q9UQM7); conditions: read-out: percent control
From the text: as §1

CAMK2D = CAMK2D (Homo sapiens (Human), UniProt Q13557); conditions: read-out: percent control
From the text: as §1

CDK11 = CDK11 (Homo sapiens (Human), UniProt Q9BWU1); conditions: read-out: percent control
Sequence of CDK11 (Q9BWU1 whole entry): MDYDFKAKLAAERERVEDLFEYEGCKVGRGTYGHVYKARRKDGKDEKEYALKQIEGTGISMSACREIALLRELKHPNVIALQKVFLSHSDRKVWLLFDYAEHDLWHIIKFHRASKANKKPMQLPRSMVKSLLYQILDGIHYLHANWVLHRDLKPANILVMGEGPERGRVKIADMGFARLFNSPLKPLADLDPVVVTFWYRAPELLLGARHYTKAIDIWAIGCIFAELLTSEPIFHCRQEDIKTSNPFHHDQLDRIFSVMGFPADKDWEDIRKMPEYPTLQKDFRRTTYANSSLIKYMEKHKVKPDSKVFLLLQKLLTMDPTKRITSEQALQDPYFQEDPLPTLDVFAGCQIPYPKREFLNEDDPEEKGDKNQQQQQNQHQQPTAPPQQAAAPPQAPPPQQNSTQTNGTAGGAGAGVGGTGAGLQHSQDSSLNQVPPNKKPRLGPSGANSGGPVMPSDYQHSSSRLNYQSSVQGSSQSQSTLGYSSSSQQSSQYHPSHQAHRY
From the text: as §1

CDK4-cyclinD1 = CDK4-cyclinD1 (Homo sapiens (Human), UniProt P11802); conditions: read-out: percent control
From the text: as §1

CSNK2A2 = CSNK2A2 (Homo sapiens (Human), UniProt P19784); conditions: read-out: percent control
Sequence of CSNK2A2 (P19784 whole entry): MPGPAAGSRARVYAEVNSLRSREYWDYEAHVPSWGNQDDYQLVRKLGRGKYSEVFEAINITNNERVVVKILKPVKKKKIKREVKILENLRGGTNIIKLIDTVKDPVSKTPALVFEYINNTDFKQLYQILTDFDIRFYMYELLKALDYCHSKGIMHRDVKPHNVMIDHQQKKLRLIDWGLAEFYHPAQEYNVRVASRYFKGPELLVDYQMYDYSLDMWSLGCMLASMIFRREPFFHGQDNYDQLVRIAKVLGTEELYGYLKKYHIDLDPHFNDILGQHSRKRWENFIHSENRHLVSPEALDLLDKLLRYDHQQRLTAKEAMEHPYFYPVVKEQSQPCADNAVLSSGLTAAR
From the text: as §1

DAPK1 = DAPK1 (Homo sapiens (Human), UniProt P53355); conditions: read-out: percent control
From the text: as §1

EGFR(L747-T751del, Sins) = conditions: 1 μM
From the text: as §1

EPHA2 = EPHA2 (Homo sapiens (Human), UniProt P29317); conditions: read-out: percent control
From the text: as §1

EPHA4 = EPHA4 (Homo sapiens (Human), UniProt P54764); conditions: read-out: percent control
Sequence of EPHA4 (P54764 20-986): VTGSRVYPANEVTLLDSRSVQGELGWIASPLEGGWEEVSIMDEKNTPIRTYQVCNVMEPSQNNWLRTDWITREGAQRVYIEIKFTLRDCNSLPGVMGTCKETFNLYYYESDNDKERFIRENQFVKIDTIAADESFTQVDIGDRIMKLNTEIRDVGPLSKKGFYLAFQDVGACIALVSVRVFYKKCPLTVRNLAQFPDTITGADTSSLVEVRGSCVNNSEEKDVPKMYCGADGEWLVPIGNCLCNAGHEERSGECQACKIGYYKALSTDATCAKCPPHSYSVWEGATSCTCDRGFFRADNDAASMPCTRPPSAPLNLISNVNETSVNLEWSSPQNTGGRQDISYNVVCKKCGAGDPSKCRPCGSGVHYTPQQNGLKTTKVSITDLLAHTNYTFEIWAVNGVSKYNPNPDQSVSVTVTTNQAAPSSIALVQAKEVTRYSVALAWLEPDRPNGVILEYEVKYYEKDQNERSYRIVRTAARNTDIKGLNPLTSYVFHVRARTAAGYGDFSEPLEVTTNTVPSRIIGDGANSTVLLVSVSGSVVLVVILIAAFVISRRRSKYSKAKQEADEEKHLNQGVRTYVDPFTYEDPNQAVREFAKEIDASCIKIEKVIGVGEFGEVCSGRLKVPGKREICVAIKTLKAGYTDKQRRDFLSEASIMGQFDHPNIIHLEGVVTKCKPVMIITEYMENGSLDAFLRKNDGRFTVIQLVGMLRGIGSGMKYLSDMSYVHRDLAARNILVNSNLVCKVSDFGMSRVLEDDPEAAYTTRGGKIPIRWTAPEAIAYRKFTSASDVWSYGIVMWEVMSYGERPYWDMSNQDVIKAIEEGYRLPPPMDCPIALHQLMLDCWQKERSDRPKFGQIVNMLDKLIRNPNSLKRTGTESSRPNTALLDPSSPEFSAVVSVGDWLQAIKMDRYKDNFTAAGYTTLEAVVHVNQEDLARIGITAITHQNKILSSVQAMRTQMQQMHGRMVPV
From the text: as §1

EPHA6 = EPHA6 (Homo sapiens (Human), UniProt Q9UF33); conditions: read-out: percent control
From the text: as §1

ERBB3 = ERBB3 (Homo sapiens (Human), UniProt P21860); conditions: read-out: percent control
From the text: as §1

ERK5 = ERK5 (Homo sapiens (Human), UniProt Q13164); conditions: read-out: percent control
From the text: as §1

GRK7 = GRK7 (Homo sapiens (Human), UniProt Q8WTQ7); conditions: read-out: percent control
From the text: as §1

HIPK1 = HIPK1 (Homo sapiens (Human), UniProt Q86Z02); conditions: read-out: percent control
From the text: as §1

HPK1 = HPK1 (Homo sapiens (Human), UniProt Q92918); conditions: read-out: percent control
From the text: as §1

IRAK3 = IRAK3 (Homo sapiens (Human), UniProt Q9Y616); conditions: read-out: percent control
From the text: as §1

JNK2 = JNK2 (Homo sapiens (Human), UniProt P45984); conditions: read-out: percent control
From the text: as §1

KIT(V559D, T670I) = KIT(V559D, T670I) (Homo sapiens (Human), UniProt P10721, T670I/V559D); conditions: read-out: percent control
From the text: as §1

KIT-autoinhibited = KIT-autoinhibited (Homo sapiens (Human), UniProt P10721); conditions: read-out: percent control
From the text: as §1

LIMK2 = LIMK2 (Homo sapiens (Human), UniProt P53671); conditions: read-out: percent control
Sequence of LIMK2 (P53671 whole entry): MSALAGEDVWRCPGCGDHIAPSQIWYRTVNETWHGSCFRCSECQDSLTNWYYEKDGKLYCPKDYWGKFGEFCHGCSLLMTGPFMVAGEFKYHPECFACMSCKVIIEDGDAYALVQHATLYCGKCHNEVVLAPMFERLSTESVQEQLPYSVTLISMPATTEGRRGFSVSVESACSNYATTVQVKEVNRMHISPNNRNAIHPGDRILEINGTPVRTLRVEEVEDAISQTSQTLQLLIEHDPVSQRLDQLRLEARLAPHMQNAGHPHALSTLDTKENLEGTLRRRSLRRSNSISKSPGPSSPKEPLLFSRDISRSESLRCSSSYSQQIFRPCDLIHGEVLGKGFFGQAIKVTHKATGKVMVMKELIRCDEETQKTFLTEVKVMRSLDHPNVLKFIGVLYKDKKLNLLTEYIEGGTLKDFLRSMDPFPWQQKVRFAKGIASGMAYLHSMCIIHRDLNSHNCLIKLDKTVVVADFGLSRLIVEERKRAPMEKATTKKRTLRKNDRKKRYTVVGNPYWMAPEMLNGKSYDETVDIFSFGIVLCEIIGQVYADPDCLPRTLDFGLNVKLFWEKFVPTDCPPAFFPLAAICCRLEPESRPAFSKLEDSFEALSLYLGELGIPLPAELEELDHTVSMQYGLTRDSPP
From the text: as §1

LRRK2 = LRRK2 (Homo sapiens (Human), UniProt Q5S007); conditions: read-out: percent control
From the text: as §1

MEK3 = MEK3 (Homo sapiens (Human), UniProt P46734); conditions: read-out: percent control
From the text: as §1

MET(Y1235D) = MET(Y1235D) (Homo sapiens (Human), UniProt P08581, Y1235D); conditions: read-out: percent control
From the text: as §1

PIK3CA(H1047L) = PIK3CA(H1047L) (Homo sapiens (Human), UniProt P42336, H1047L); conditions: read-out: percent control
From the text: as §1

PIK3CA(M1043I) = PIK3CA(M1043I) (Homo sapiens (Human), UniProt P42336, M1043I); conditions: read-out: percent control
From the text: as §1

PIKFYVE = PIKFYVE (Homo sapiens (Human), UniProt Q9Y2I7); conditions: read-out: percent control
From the text: as §1

PIP5K2C = PIP5K2C (Homo sapiens (Human), UniProt Q8TBX8); conditions: read-out: percent control
From the text: as §1

PLK4 = PLK4 (Homo sapiens (Human), UniProt O00444); conditions: read-out: percent control
Sequence of PLK4 (O00444 whole entry): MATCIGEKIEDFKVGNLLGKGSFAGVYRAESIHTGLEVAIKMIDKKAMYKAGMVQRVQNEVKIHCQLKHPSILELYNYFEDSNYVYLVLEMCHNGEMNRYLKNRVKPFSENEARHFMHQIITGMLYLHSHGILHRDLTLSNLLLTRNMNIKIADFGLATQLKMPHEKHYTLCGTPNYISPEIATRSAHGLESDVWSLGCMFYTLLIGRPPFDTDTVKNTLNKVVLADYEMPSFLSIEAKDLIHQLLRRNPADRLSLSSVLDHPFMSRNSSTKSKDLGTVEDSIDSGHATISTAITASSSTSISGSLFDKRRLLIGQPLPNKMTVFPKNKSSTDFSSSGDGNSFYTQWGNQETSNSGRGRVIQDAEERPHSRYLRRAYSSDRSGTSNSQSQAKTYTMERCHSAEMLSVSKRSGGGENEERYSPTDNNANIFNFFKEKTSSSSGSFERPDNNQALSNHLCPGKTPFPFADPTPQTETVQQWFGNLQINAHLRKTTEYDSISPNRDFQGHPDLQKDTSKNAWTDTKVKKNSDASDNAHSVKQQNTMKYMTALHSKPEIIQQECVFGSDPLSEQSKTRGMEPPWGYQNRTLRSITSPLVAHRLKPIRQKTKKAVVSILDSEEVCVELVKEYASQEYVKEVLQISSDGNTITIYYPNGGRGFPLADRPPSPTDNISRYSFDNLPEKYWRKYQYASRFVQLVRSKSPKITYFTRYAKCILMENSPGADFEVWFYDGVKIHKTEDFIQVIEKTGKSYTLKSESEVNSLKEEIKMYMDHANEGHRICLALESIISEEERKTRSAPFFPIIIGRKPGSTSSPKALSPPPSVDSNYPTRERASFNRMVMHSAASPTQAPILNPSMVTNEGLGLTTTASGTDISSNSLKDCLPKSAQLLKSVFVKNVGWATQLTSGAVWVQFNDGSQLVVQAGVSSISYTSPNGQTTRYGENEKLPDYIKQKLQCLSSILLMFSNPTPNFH
From the text: as §1

PRKCE = PRKCE (Homo sapiens (Human), UniProt Q02156); conditions: read-out: percent control
From the text: as §1

PRKCH = PRKCH (Homo sapiens (Human), UniProt P24723); conditions: read-out: percent control
From the text: as §1

RET(V804L) = RET(V804L) (Homo sapiens (Human), UniProt P07949, V804L); conditions: read-out: percent control
From the text: as §1

RIOK2 = RIOK2 (Homo sapiens (Human), UniProt Q9BVS4); conditions: read-out: percent control
From the text: as §1

[2] = target: RPS6KA5(Kin.Dom.2-C-terminal) (Homo sapiens (Human), UniProt O75582); conditions: read-out: percent control
From the text: as §1

TGFBR2 = TGFBR2 (Homo sapiens (Human), UniProt P37173); conditions: read-out: percent control
From the text: as §1

TNNI3K = TNNI3K (Homo sapiens (Human), UniProt Q59H18); conditions: read-out: percent control
From the text: as §1

ULK1 = ULK1 (Homo sapiens (Human), UniProt O75385); conditions: read-out: percent control
From the text: as §1

YANK1 = YANK1 (Homo sapiens (Human), UniProt Q8WU08); conditions: read-out: percent control
From the text: as §1

Row | SMILES | remaining binding at 1 µM [1] [%] | remaining binding at 1 µM (AXL) [%] | remaining binding at 1 µM (BMX) [%] | remaining binding at 1 µM (CAMK2A) [%] | remaining binding at 1 µM (CAMK2D) [%] | remaining binding at 1 µM (CDK11) [%] | remaining binding at 1 µM (CDK4-cyclinD1) [%] | remaining binding at 1 µM (CSNK2A2) [%] | remaining binding at 1 µM (DAPK1) [%] | percent control (EGFR(L747-T751del, Sins)) [%] | remaining binding at 1 µM (EPHA2) [%] | remaining binding at 1 µM (EPHA4) [%] | remaining binding at 1 µM (EPHA6) [%] | remaining binding at 1 µM (ERBB3) [%] | remaining binding at 1 µM (ERK5) [%] | remaining binding at 1 µM (GRK7) [%] | remaining binding at 1 µM (HIPK1) [%] | remaining binding at 1 µM (HPK1) [%] | remaining binding at 1 µM (IRAK3) [%] | remaining binding at 1 µM (JNK2) [%] | further results
1 | CCN1CCN(Cc2ccc(Nc3nc4ccc(Oc5ccnc(NC(C)=O)c5)cc4n3C)cc2C(F)(F)F)CC1 [Compound I-2] | 43 | 86 | 100 | 79 | 100 | 1.5 | 85 | 82 | 87 | 98 | 100 | 100 | 100 | 62 | 89 | 88 | 56 | 69 | 91 | 85 | remaining binding at 1 µM (KIT(V559D, T670I)): 1.2%; remaining binding at 1 µM (KIT-autoinhibited): 76%; remaining binding at 1 µM (LIMK2): 100%; remaining binding at 1 µM (LRRK2): 100%; remaining binding at 1 µM (MEK3): 57%; remaining binding at 1 µM (MET(Y1235D)): 71%; remaining binding at 1 µM (PIK3CA(H1047L)): 73%; remaining binding at 1 µM (PIK3CA(M1043I)): 78%; remaining binding at 1 µM (PIKFYVE): 80%; remaining binding at 1 µM (PIP5K2C): 96%; remaining binding at 1 µM (PLK4): 92%; remaining binding at 1 µM (PRKCE): 100%; remaining binding at 1 µM (PRKCH): 100%; remaining binding at 1 µM (RET(V804L)): 15%; remaining binding at 1 µM (RIOK2): 51%; remaining binding at 1 µM [2]: 90%; remaining binding at 1 µM (TGFBR2): 90%; remaining binding at 1 µM (TNNI3K): 23%; remaining binding at 1 µM (ULK1): 100%; remaining binding at 1 µM (YANK1): 100%
2 | CCN1CCN(Cc2ccc(Nc3nc4ccc(Oc5ccnc(NC(C)=O)c5)c(C)c4n3C)cc2C(F)(F)F)CC1 [Compound I-6, N-(4-(2-(4-((4-ethylpiperazin-1-yl)methyl)-3-(trifluoromethyl)phenylamino)-1,7-dimethyl-1H-benzo[d]imidazol-6-yloxy)pyridin-2-yl)acetamide] | 44 | 61 | 91 | 100 | 85 | 1.6 | 83 | 100 | 99 | 100 | 68 | 91 | 96 | 89 | 88 | 95 | 81 | 56 | 91 | 66 | remaining binding at 1 µM (KIT(V559D, T670I)): 1.5%; remaining binding at 1 µM (KIT-autoinhibited): 82%; remaining binding at 1 µM (LIMK2): 88%; remaining binding at 1 µM (LRRK2): 86%; remaining binding at 1 µM (MEK3): 87%; remaining binding at 1 µM (MET(Y1235D)): 44%; remaining binding at 1 µM (PIK3CA(H1047L)): 85%; remaining binding at 1 µM (PIK3CA(M1043I)): 100%; remaining binding at 1 µM (PIKFYVE): 93%; remaining binding at 1 µM (PIP5K2C): 93%; remaining binding at 1 µM (PLK4): 100%; remaining binding at 1 µM (PRKCE): 92%; remaining binding at 1 µM (PRKCH): 87%; remaining binding at 1 µM (RET(V804L)): 7.8%; remaining binding at 1 µM (RIOK2): 96%; remaining binding at 1 µM [2]: 100%; remaining binding at 1 µM (TGFBR2): 81%; remaining binding at 1 µM (TNNI3K): 51%; remaining binding at 1 µM (ULK1): 56%; remaining binding at 1 µM (YANK1): 93%
